From US20070197538A1, “Anti-vascular and anti-proliferation methods, therapies, and combinations employing specific tyrosine kinase inhibitors” (priority 2004, published 2007)
Entries after “also recorded” stand apart in the source; their conditions may differ. Where a name gives a salt, the structure may show the parent alone.

Legend:
Kit = biological target: T1, Kit (Homo sapiens, UniProt P10721); test: recombinant kinase transphosphorylation (33P-ATP) profiling, Kit; assay type: biochemical; settings: 10 concentrations, n=1
T1 construct: host or cells: baculovirus system

Abl-1 = biological target: T2, Abl-1 (Homo sapiens, UniProt P00519); test: recombinant kinase transphosphorylation (33P-ATP) profiling, Abl-1; assay type: biochemical; settings: 10 concentrations, n=1
T2 construct: host or cells: baculovirus system
T2 sequence (P00519 whole entry): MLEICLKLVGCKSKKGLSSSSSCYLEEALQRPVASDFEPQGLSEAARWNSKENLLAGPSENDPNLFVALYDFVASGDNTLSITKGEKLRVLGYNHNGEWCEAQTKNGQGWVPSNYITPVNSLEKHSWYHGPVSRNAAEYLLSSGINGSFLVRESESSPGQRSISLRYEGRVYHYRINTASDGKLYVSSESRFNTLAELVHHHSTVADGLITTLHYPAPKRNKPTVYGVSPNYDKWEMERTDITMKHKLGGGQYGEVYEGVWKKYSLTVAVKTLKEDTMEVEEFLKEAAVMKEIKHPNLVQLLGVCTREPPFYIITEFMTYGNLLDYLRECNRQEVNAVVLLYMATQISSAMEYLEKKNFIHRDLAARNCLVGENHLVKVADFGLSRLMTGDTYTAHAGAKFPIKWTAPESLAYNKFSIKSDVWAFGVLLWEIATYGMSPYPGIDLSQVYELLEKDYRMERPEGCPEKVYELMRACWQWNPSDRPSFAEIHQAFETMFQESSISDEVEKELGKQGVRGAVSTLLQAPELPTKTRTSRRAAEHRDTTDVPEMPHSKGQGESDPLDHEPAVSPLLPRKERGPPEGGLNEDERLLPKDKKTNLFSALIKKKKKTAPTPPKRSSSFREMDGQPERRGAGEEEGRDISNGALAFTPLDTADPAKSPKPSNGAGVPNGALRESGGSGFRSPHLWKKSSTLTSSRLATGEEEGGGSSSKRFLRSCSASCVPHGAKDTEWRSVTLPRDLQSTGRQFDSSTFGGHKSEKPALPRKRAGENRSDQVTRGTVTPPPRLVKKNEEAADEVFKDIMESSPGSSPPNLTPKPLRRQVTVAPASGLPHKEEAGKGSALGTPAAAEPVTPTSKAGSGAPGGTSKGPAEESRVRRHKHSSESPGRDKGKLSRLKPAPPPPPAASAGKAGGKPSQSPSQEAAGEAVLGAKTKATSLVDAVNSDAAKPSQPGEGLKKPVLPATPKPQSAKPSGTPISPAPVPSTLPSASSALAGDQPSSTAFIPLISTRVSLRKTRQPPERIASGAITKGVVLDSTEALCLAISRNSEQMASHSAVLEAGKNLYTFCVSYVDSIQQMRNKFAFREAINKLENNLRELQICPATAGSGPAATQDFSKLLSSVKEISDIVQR
Protocol: (§1) The ability of a set of protein kinases—tyrosine and serine/threonine kinases expressed in a baculovirus system—to incorporate ^33P (from ^33P-ATP) in relevant substrates, in the presence of decreasing concentrations of the inhibitor (10 concentrations from 10^−5 to 3.10^−10, n=1) was determined.

Src = biological target: T3, Src (Homo sapiens, UniProt P12931); test: recombinant kinase transphosphorylation (33P-ATP) profiling, Src; assay type: biochemical; settings: 10 concentrations, n=1
T3 construct: host or cells: baculovirus system

Flt-3 = biological target: T4, Flt-3 (Homo sapiens, UniProt P36888); test: recombinant kinase transphosphorylation (33P-ATP) profiling, Flt-3; assay type: biochemical; settings: 10 concentrations, n=1
T4 construct: host or cells: baculovirus system
T4 sequence (P36888 27-993): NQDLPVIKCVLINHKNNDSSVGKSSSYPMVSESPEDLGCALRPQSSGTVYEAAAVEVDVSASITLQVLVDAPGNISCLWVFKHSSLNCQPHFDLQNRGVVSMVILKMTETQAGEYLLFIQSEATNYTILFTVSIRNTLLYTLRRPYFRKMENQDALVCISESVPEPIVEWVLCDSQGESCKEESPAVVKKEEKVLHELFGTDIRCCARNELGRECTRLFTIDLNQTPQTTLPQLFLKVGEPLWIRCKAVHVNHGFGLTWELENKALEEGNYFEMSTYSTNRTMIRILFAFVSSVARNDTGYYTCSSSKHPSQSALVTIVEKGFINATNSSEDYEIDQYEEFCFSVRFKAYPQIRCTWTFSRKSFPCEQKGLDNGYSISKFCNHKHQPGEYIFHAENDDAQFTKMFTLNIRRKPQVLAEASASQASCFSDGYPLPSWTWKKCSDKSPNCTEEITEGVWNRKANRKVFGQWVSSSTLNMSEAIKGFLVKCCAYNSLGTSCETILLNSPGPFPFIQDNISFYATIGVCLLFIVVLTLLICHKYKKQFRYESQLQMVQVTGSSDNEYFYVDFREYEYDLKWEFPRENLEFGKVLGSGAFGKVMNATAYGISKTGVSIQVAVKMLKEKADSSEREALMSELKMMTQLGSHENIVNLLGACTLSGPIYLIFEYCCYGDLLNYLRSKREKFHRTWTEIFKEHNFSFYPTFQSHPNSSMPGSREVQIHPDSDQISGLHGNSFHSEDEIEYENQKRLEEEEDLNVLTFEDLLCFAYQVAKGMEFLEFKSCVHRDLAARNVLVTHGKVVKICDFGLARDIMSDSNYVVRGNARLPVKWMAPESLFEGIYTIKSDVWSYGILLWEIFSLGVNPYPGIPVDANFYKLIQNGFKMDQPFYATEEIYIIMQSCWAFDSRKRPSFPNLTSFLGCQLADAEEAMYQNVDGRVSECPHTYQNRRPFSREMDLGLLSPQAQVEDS

FGR = biological target: T5, FGR (Homo sapiens, UniProt P09769); test: recombinant kinase transphosphorylation (33P-ATP) profiling, FGR; assay type: biochemical; settings: 10 concentrations, n=1
T5 construct: host or cells: baculovirus system
Protocol: as §1

Irak = test: recombinant kinase transphosphorylation (33P-ATP) profiling, Irak; assay type: biochemical; settings: 10 concentrations, n=1
Eph-B4 = biological target: T6, Eph-B4 (Homo sapiens, UniProt P54760); test: recombinant kinase transphosphorylation (33P-ATP) profiling, Eph-B4; assay type: biochemical; settings: 10 concentrations, n=1
T6 construct: host or cells: baculovirus system
Protocol: as §1

Met = biological target: T7, Met (Homo sapiens, UniProt P08581); test: recombinant kinase transphosphorylation (33P-ATP) profiling, Met; assay type: biochemical; settings: 10 concentrations, n=1
T7 construct: host or cells: baculovirus system
Protocol: as §1

VEGF-R1 = biological target: T8, VEGF-R1 (Homo sapiens, UniProt P17948); test: recombinant kinase transphosphorylation (33P-ATP) profiling, VEGF-R1; assay type: biochemical; settings: 10 concentrations, n=1
T8 construct: host or cells: baculovirus system
T8 sequence (P17948 27-1338): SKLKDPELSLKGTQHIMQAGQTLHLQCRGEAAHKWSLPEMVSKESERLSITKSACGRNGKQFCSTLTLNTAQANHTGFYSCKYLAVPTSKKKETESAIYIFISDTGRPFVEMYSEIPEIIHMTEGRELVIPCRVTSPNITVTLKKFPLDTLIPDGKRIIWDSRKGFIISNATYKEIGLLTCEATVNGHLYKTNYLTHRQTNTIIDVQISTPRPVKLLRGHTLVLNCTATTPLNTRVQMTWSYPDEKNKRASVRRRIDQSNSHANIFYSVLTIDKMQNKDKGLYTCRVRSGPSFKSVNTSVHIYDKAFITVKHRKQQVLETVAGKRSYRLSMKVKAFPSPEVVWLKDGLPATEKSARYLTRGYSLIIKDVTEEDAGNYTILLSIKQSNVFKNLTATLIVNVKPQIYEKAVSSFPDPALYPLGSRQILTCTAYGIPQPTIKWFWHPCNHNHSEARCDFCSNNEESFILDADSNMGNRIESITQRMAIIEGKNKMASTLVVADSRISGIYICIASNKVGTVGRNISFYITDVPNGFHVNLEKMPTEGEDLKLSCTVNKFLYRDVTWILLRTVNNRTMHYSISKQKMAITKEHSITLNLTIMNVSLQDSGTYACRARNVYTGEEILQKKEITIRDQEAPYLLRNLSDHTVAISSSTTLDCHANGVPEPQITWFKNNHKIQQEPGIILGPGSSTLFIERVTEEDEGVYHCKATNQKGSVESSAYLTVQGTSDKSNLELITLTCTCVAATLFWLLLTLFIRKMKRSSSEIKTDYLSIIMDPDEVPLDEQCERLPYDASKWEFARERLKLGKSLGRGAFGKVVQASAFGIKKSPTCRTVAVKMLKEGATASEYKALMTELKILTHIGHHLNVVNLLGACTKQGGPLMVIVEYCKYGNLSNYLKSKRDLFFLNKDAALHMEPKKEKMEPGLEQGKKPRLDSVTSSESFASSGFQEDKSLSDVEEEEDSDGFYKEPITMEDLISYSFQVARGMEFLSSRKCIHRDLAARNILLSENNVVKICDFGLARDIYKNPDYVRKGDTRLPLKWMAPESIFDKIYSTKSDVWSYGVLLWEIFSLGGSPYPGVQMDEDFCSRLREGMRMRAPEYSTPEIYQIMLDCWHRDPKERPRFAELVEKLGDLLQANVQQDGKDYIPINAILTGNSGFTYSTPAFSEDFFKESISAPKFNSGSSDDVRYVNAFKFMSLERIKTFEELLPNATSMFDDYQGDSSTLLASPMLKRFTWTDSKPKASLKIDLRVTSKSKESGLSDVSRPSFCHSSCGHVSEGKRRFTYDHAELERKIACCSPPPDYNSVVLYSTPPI
Protocol: as §1

VEGF-R2 = biological target: T9, VEGF-R2 (Homo sapiens, UniProt P35968); test: recombinant kinase transphosphorylation (33P-ATP) profiling, VEGF-R2; assay type: biochemical; settings: 10 concentrations, n=1
T9 construct: host or cells: baculovirus system
Protocol: as §1

FGF-R1 = biological target: T10, FGF-R1 (Homo sapiens, UniProt P11362); test: recombinant kinase transphosphorylation (33P-ATP) profiling, FGF-R1; assay type: biochemical; settings: 10 concentrations, n=1
T10 construct: host or cells: baculovirus system
Protocol: as §1

FGF-R4 = biological target: T11, FGF-R4 (Homo sapiens, UniProt P22455); test: recombinant kinase transphosphorylation (33P-ATP) profiling, FGF-R4; assay type: biochemical; settings: 10 concentrations, n=1
T11 construct: host or cells: baculovirus system
Protocol: as §1

IGF1-R = biological target: T12, IGF1-R (Homo sapiens, UniProt P08069); test: recombinant kinase transphosphorylation (33P-ATP) profiling, IGF1-R; assay type: biochemical; settings: 10 concentrations, n=1
T12 construct: host or cells: baculovirus system
T12 sequence (P08069 31-1367): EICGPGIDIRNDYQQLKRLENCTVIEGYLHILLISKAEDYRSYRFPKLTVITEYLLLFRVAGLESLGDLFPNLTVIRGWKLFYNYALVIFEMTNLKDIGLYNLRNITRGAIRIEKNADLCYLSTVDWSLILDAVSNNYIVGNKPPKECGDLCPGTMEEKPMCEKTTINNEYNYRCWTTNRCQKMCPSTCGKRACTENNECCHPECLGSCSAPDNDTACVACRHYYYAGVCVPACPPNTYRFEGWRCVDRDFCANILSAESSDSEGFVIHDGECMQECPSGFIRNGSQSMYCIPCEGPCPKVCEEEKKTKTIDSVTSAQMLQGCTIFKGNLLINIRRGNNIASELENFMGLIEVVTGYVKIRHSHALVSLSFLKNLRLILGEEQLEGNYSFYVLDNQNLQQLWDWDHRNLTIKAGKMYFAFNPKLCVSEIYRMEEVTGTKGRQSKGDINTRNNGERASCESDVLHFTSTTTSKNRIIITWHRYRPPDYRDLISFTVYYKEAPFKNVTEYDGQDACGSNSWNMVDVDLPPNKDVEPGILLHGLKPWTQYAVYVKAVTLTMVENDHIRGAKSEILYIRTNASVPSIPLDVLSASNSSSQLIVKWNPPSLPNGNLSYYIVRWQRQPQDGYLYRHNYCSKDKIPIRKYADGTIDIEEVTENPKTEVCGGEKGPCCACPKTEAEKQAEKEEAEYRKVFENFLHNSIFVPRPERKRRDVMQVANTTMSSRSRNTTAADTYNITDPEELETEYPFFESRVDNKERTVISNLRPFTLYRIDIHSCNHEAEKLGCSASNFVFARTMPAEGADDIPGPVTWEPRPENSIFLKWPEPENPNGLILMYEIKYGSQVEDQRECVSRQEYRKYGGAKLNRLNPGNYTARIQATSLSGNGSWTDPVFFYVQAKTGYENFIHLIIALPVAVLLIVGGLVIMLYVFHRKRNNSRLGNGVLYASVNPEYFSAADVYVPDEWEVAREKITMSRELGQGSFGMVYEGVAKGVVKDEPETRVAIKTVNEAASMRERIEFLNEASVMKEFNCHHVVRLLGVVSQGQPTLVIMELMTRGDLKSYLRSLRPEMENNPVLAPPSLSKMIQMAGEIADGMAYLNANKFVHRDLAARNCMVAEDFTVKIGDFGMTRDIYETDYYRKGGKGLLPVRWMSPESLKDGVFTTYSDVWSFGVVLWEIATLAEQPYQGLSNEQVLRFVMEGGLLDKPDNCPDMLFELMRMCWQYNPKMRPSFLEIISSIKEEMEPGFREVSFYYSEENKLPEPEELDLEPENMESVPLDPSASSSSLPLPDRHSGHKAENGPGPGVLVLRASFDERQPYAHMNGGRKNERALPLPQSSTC
Protocol: as §1

MV4-11 cells (FLT3-ITD) = test: MV4-11 cell growth, luminescence assay at 72 hours; assay type: cell-based, human
Excerpt: Staurosporine, a non specific kinase inhibitor, was used as positive control.

MOLM-13 cells (FLT3-ITD) = test: MOLM-13 cell growth, luminescence assay at 72 hours; assay type: cell-based
Excerpt: Staurosporine, a non specific kinase inhibitor, is used as positive control.

[1] = system: RS4-11 cells (FLT3-wild type); test: RS4-11 cell growth, luminescence assay at 72 hours; assay type: cell-based, human; settings: with or without 100 ng/mL FLT3 ligand, FIGS. 5 and 6
[2] = system: MAPK, P13K and STAT5 pathways; test: FLT3 downstream signaling phosphorylation in AML FLT3-ITD cell lines; assay type: cell-based; settings: immunoprecipitations/western blot
MV4-11 and MOLM-13 cells = test: apoptosis by annexin V-FITC / propidium iodide flow cytometry; assay type: cell-based; settings: 48 to 72 hours incubation
Protocol: Apoptosis was evaluated by means of flow cytometry to measure cellular binding of an annexin V-FITC conjugate as well as uptake of the vital stain propidium iodide.

[3] = system: protein kinases belonging to families different from the tyrosine kinase family; test: kinase profiling, protein kinases outside the tyrosine kinase family; assay type: biochemical
[4] = system: Mouse endothelial cells from pancreas; test: sensitivity of pancreas endothelial cells to Taxotere cytotoxicity; assay type: cell-based; settings: with Taxotere
Protocol: Mouse endothelial cells from pancreas are maintained in culture at a temperature 33° C. where they are actively dividing.

L3.6 pL pancreatic tumor = test: orthotopic human pancreatic cancer L3.6 pL in nude mice; assay type: in vivo
Protocol: A pancreatic tumor which is shown to upregulate expression of PDGF AA, BB, A/B at metastatic sites is used for the in vivo studies. Other tumor systems that are known to upregulate expression of PDGF may also be used such as ovarian cancer, prostate cancer, bone metastasis, or breast cancer bone metastasis.
Tumor cells L3.6 pL derived from pancreatic cancer are injected into the pancreas of nude mice. The tumors are grown into detectable lesions.
Two days later, the mice are killed and the organs with and without tumors harvested, fixed, and immunostained to evaluate expression of PDGF AA, BB, A/B, PDGF-R (α,β) and status of phosphorylation of PDGF-R (α,β) on tumor cells and organ-specific endothelial cells.
The surviving mice are then killed and the size of tumor and metastasis is measured. Fixation of the tissues and staining of the tumor cells are performed. Endothelial cells are examined for division (PCNA), apoptosis (TUNEL), CD31 (endothelial cells). Expression of PDGF AA, BB, A/B, and phosphorylation of PDGF-Rα/β are further studied in these endothelial cells.

MV4;11 or RS4;11 cells = test: subcutaneous MV4;11 or RS4;11 tumors in athymic nu/nu mice; assay type: in vivo; settings: oral, daily or 3 times per week, 50-200 mg/kg, pre-existing tumors
Protocol: Animals are randomized into treatment groups of 15 mice each for efficacy studies. […] Tumor growth is measured twice weekly using Vernier calipers for the duration of the treatment. Tumor volumes are calculated as the product of length x width x height. On completion of the experiments, mice are sacrificed and tumors are harvested for determination of FLT3 and phosphorylated FLT3 in tumor lysates by immunoprecipitation and Western-blot.

MV4;11 cells = test: intravenous MV4;11 leukemia model in NOD-SCID mice; assay type: in vivo
Protocol: In a subset of animals, bone marrow cell suspensions are prepared by flushing mouse femurs with cold sterile PBS, at experimental timepoints (within 90 days of implantation).

[5] = system: AML193 cells (wild type FLT3); test: AML193 cell growth, luminescence assay at 72 hours; settings: with or without 100 ng/mL FLT3 ligand, GN963 at concentrations used (30 μM), FIGS. 3 and 4
FLT3-ITD = test: cellular FLT3 phosphorylation, immunoprecipitation/western blot; settings: immunoprecipitations/western blot
PDGFRa = biological target: T13, PDGFRa (Homo sapiens, UniProt P16234); test: recombinant kinase transphosphorylation (33P-ATP) profiling, PDGFRa; assay type: biochemical; settings: 10 concentrations, n=1
T13 construct: host or cells: baculovirus system

PDGFRb = biological target: T14, PDGFRb (Homo sapiens, UniProt P09619); test: recombinant kinase transphosphorylation (33P-ATP) profiling, PDGFRb; assay type: biochemical; settings: 10 concentrations, n=1
T14 construct: host or cells: baculovirus system

Brk = biological target: T15, Brk (Homo sapiens, UniProt Q13882); test: recombinant kinase transphosphorylation (33P-ATP) profiling, Brk; assay type: biochemical; settings: 10 concentrations, n=1
T15 construct: host or cells: baculovirus system
Protocol: as §1

Lck = biological target: T16, Lck (Homo sapiens, UniProt P06239); test: recombinant kinase transphosphorylation (33P-ATP) profiling, Lck; assay type: biochemical; settings: 10 concentrations, n=1
T16 construct: host or cells: baculovirus system

EGF-R = biological target: T17, EGF-R (Homo sapiens, UniProt P00533); test: recombinant kinase transphosphorylation (33P-ATP) profiling, EGF-R; assay type: biochemical; settings: 10 concentrations, n=1
T17 construct: host or cells: baculovirus system

Ins-R = biological target: T18, Ins-R (Homo sapiens, UniProt P06213); test: recombinant kinase transphosphorylation (33P-ATP) profiling, Ins-R; assay type: biochemical; settings: 10 concentrations, n=1
T18 construct: host or cells: baculovirus system

## COc1cc2ncc(N[C@H]3CC[C@H](O)CC3)nc2cc1OC [GN963, trans-4-(6,7-dimethoxy-quinoxalin-2-ylamino)-cyclohexanol sulfate]
Kit
  IC50: 7200 nM
Abl-1
  IC50: 13000 nM
Src
  IC50: 3600 nM
Flt-3
  IC50: 1400 nM
FGR
  IC50: 17000 nM
Irak
  IC50: 4100 nM
Eph-B4
  IC50: 7200 nM
Met
  IC50: > 10000 nM
VEGF-R1
  IC50: > 10000 nM
VEGF-R2
  IC50: > 10000 nM
FGF-R1
  IC50: > 10000 nM
FGF-R4
  IC50: > 10000 nM
IGF1-R
  IC50: > 10000 nM
MV4-11 cells (FLT3-ITD); 72 hours, luminescence assay, FIG. 1
  effect on MV4-11 cell growth: inhibits MV4-11 cell growth in a dose dependent manner
MV4-11 cells (FLT3-ITD); Homo sapiens, MV4-11, 72 h with inhibitor, Cell Titer-Glo, range stated for MV4-11 and MOLM-13 together, read-out: IC50, inhibition of cellular proliferation
  IC50: 0.7 to 2 µM
MOLM-13 cells (FLT3-ITD); 72 hours, luminescence assay, FIG. 2
  effect on MOLM-13 cell growth: dose response effect
MOLM-13 cells (FLT3-ITD); Homo sapiens, MOLM-13, 72 h with inhibitor, Cell Titer-Glo, range stated for MV4-11 and MOLM-13 together, read-out: IC50, inhibition of cellular proliferation
  IC50: 0.7 to 2 µM
[1]
  effect on RS4-11 cell growth: not inhibited; also recorded: no effect
[2]
  STAT5, MAPK and P13K phosphorylation: inhibits STAT5, MAPK and P13K phosphorylation in a dose-dependent manner
MV4-11 and MOLM-13 cells
  induction of apoptosis: induce apoptosis
[3]
  phosphorylation mediated by protein kinases of families other than tyrosine kinases: did not inhibit
[4]
  resistance of organ-specific endothelial cells to Taxotere increased by pancreatic tumor-conditioned medium: reversal of this increased resistance
[4]; cells at 33° C.
  sensitivity of endothelial cells to cytotoxicity mediated by Taxotere: increases sensitivity of endothelial cells to cytotoxicity mediated by Taxotere
L3.6 pL pancreatic tumor; combination with Taxotere, 4-6 weeks
  survival rate: higher survival rate
L3.6 pL pancreatic tumor; combination with Taxotere, tumor cells resistant to Taxotere (MDR cells)
  effect of the combination in cancer refractory to chemotherapy: synergistic effect
L3.6 pL pancreatic tumor; single oral dose, organs harvested two days later
  expression of phosphorylated PDGF-R on endothelial cells: inhibited
MV4;11 or RS4;11 cells
  tumor growth: efficacy against tumor growth
MV4;11 cells; H&E-stained sections, oral 50-200 mg/kg
  large infiltrating cells with mitotic figures in bone marrow: reduced numbers of large infiltrating cells with mitotic figures
MV4;11 cells; flow cytometry, oral 50-200 mg/kg
  CD45 positive cells in bone marrow: reduced numbers of CD45 positive cells
MV4;11 cells; oral, 50-200 mg/kg, once daily or 3 times per week
  survival: prolonged survival
[5]
  effect on AML193 cell growth: not inhibited; also recorded: no effect
FLT3-ITD
  FLT3-ITD phosphorylation: inhibited FLT3-ITD phosphorylation in a dose-dependent manner

## cis-4-(6,7-dimethoxy-quinoxalin-2-ylamino)-cyclohexanol sulfate [Cis-isomer]
PDGFRa
  IC50: 1400 nM
PDGFRb
  IC50: 2200 nM
Kit
  IC50: 6100 nM
Abl-1
  IC50: 4400 nM
Src
  IC50: 3200 nM
Brk
  IC50: 5700 nM
Lck
  IC50: 7500 nM
Flt-3
  IC50: > 10000 nM
FGR
  IC50: 4600 nM
Irak
  IC50: > 10000 nM
Eph-B4
  IC50: > 10000 nM
Met
  IC50: 10000 nM
VEGF-R1
  IC50: > 10000 nM
EGF-R
  IC50: > 10000 nM
FGF-R1
  IC50: > 10000 nM
FGF-R4
  IC50: > 10000 nM
IGF1-R
  IC50: > 10000 nM
Ins-R
  IC50: > 10000 nM
